From ChEMBL document CHEMBL1135102, “2-Amino-7-deazaadenine forms stable base pairs with cytosine and thymine” (Bioorg Med Chem Lett, 2002)

How the values were obtained:
Format in all cases: ADME
[1] = Kinetic parameter Vmax was determined
[2] = Efficiency expressed as ratio of Vmax to that of Km was determined
[3] = Kinetic parameter Km was determined

Row | Vmax [1] [pmol/U/min] | Ratio [2] | Km [3] [µM] | Structure (SMILES)
1 | 0.994 | 0.0452 | 22 | Nc1ncnc2c1ncn2[C@H]1C[C@H](O)[C@@H](COP(=O)(O)OP(=O)(O)OP(=O)(O)O)O1
2 | 18.7 | 0.73 | 25.6 | Nc1ccn([C@H]2C[C@H](O)[C@@H](COP(=O)(O)OP(=O)(O)OP(=O)(O)O)O2)c(=O)n1 [DEOXYCYTIDINE TRIPHOSPHATE]
3 | 13.1 | 0.211 | 62 | Nc1nc2c(ncn2[C@H]2C[C@H](O)[C@@H](COP(=O)(O)OP(=O)(O)OP(=O)(O)O)O2)c(=O)[nH]1 [DEOXYGUANOSINE TRIPHOSPHATE]
